Results reported in patent publication US9376433B2, “(AZA-)isoquinolinone derivatives” (MERCK PATENT GMBH, priority 2012, dated 2016).

Biological target: T1, PARP-1 (Homo sapiens, UniProt P09874)
T1 construct: purchased Enzo Life Sciences GmbH, Lorrach, Germany
Assay: PARP-1 autoparsylation assay (HTRF)
Type: biochemical
Conditions: His-tagged Parp-1, human recombinant
Description: Description of the PARP1 Assay
Biochemical Activity Testing of PARP-1: Autoparsylation Assay
The autoparsylation assay is run in two steps: the enzymatic reaction in which His-tagged Parp-1 transfers biotinylated ADP-ribose/ADP-ribose to itself from biotinylated NAD/NAD as co-substrate and the detection reaction where a time resolved FRET between cryptate labelled anti-His antibody bound to the His tag of the enzyme and Xlent® labelled-streptavidin bound the biotin-parsylation residue is analysed. The autoparsylation activity is detectable directly via the increase in HTRF signal.
The autoparsylation assay is performed as 384-well HTRF® (Cisbio, Codolet, France) assay format in Greiner low volume nb 384-well microtiter plates. 35 nM His-tagged Parp-1 (human, recombinant, Enzo Life Sciences GmbH, Lorrach, Germany) and a mixture of 125 nM bio-NAD (Biolog, Life science Inst., Bremen, Germany) and 800 nM NAD as co-substrate are incubated in a total volume of 6 μl (100 mM Tris/HCl, 4 mM Mg-chloride, 0.01% IGEPAL® CA630, 1 mM DTT , 0.5% DMSO, pH 8, 13 ng/μl activated DNA (BPS Bioscience, San Diego, US)) in the absence or presence of the test compound (10 dilution concentrations) for 150 min at 23° C. The reaction is stopped by the addition of 4 μl of the Stop/detection solution (70 nM SA-Xlent® (Cisbio, Codolet, France), 2.5 nM Anti-His-K® (Eu-labelled anti-His, Cisbio, Codolet, France) in 50 mM HEPES, 400 mM KF, 0.1% BSA, 20 mM EDTA, pH 7.0). After 1 h incubation at room temperature the HTRF iss measured with an Envision multimode reader (Perkin Elmer LAS Germany GmbH) at excitation wavelength 340 nm (laser mode) and emission wavelengths 615 nm and 665 nm. The ratio of the emission signals is determined. The full value used is the inhibitor-free reaction. The pharmacological zero value used is Olaparib (LClabs, Woburn, US) in a final concentration of 1 μM. The inhibitory values (IC50) are determined using either the program Symyx Assay Explorer® or Condosseo® from GeneData.

T1 sequence (P09874 whole entry): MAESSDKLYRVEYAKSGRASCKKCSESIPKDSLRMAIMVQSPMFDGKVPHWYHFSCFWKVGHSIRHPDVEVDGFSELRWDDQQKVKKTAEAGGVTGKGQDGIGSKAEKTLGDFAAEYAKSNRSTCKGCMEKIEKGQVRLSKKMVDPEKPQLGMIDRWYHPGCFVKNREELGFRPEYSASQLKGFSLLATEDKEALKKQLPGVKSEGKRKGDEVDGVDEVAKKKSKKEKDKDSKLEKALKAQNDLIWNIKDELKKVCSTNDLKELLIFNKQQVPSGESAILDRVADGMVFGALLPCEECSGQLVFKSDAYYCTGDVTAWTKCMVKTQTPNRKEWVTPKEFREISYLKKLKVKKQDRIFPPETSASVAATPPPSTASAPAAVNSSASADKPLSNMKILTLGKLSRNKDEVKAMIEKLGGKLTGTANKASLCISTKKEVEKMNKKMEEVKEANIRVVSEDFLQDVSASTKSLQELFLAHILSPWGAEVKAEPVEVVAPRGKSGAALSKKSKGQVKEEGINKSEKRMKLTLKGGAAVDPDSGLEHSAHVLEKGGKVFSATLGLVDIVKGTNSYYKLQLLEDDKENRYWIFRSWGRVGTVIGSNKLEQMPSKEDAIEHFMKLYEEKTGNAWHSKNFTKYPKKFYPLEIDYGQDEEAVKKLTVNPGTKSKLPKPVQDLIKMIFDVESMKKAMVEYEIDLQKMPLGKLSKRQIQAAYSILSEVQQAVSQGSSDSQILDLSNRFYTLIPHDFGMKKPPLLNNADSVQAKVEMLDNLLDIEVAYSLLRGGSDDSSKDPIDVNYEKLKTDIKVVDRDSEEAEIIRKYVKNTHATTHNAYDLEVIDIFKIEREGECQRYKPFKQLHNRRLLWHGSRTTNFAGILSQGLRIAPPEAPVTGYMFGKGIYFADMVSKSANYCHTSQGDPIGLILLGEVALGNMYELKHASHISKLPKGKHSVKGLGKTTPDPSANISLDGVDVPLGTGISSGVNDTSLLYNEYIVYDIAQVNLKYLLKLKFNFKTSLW

Row | Compound | IC50 [µM]
1 | Cc1ccc(-c2cc3cc(F)ccc3c(=O)[nH]2)cc1 [Compound A10, 6-fluoro-3-p-tolyl-2H-isoquinolin-1-one] | 3 to 50
2 | CC(C)(O)c1ccc(-c2cc3cnccc3c(=O)[nH]2)cc1 [Compound A23, 3-[4-(1-hydroxy-1-methyl-ethyl)phenyl]-2H-2,6-naphthyridin-1-one] | 3 to 50
3 | Cc1ccc(-c2cc3cccc(F)c3c(=O)[nH]2)cc1 [Compound A11, 8-fluoro-3-p-tolyl-2H-isoquinolin-1-one] | 0.3 to 3
4 | CC(C)(O)c1ccc(-c2cc3ccncc3c(=O)[nH]2)cc1 [Compound A24, 3-[4-(1-hydroxy-1-methyl-ethyl)phenyl]-2H-2,7-naphthyridin-1-one] | 3 to 50
5 | CC(C)(O)c1ccc(-c2cc3c(F)cc(F)cc3c(=O)[nH]2)cc1 [Compound A33, 5,7-difluoro-3-[4-(1-hydroxy-1-methyl-ethyl)-phenyl]-2H-isoquinolin-1-one] | < 0.3
6 | CC(C)(O)c1ccc(-c2cc3cc(F)ccc3c(=O)[nH]2)cc1 [Compound A5, 6-fluoro-3-[4-(1-hydroxy-1-methyl-ethyl)-phenyl]-2H-isoquinolin-1-one] | 0.3 to 3
7 | CC(C)(N)c1ccc(-c2cc3ccc(F)cc3c(=O)[nH]2)cc1 [Compound A20, 3-[4-(1-amino-1-methyl-ethyl)phenyl]-7-fluoro-2H-isoquinolin-1-one] | < 0.3
8 | CC(C)(O)c1ccc(-c2cc3ccccc3c(=O)[nH]2)cc1 [Compound A3, 3-[4-(1-hydroxy-1-methyl-ethyl)-phenyl]-2H-isoquinolin-1-one] | 0.3 to 3
9 | Cn1cc(-c2ccc(-c3cc4ccc(F)cc4c(=O)[nH]3)cc2)cn1 [Compound A18, 7-fluoro-3-[4-(1-methyl-1H-pyrazol-4-yl)-phenyl]-2H-isoquinolin-1-one] | 0.3 to 3
10 | CC(C)(O)c1ccc(-c2cc3ccc(F)cc3c(=O)[nH]2)cc1 [Compound A6, 7-fluoro-3-[4-(1-hydroxy-1-methyl-ethyl)-phenyl]-2H-isoquinolin-1-one] | 0.3 to 3
11 | COC(C)(C)c1ccc(-c2cc3ccccc3c(=O)[nH]2)cc1 [Compound A15, 3-[4-(1-methoxy-1-methyl-ethyl)-phenyl]-2H-isoquinolin-1-one] | 0.3 to 3
12 | CC(C)(O)c1ccc(-c2cc3c(F)cccc3c(=O)[nH]2)cc1 [Compound A28, 5-fluoro-3-[4-(1-hydroxy-1-methyl-ethyl)phenyl]-2H-isoquinolin-1-one] | 0.3 to 3
13 | Cc1ccc(-c2cc3ccc(F)cc3c(=O)[nH]2)cc1 [Compound A9, 7-fluoro-3-p-tolyl-2H-isoquinolin-1-one] | < 0.3
14 | Cn1cc(-c2ccc(-c3cc4ccncc4c(=O)[nH]3)cc2)cn1 [Compound A14, 3-[4-(1-Methyl-1H-pyrazol-4-yl)-phenyl]-2H-[2,7]naphthyridin-1-one] | 3 to 50
15 | C=C(C)c1ccc(-c2cc3ccc(F)cc3c(=O)[nH]2)cc1 [Compound A17, 7-fluoro-3-(4-isopropenyl-phenyl)-2H-isoquinolin-1-one] | 0.3 to 3
16 | CC(C)(O)c1ccc(-c2cc3cccc(F)c3c(=O)[nH]2)cc1 [Compound A27, 8-fluoro-3-[4-(1-hydroxy-1-methyl-ethyl)phenyl]-2H-isoquinolin-1-one] | 0.3 to 3
17 | Cc1ccc(-c2cc3c(F)cccc3c(=O)[nH]2)cc1 [Compound A12, 5-fluoro-3-p-tolyl-2H-isoquinolin-1-one] | 0.3 to 3
18 | Cc1ccc(-c2cc3c(C)cccc3c(=O)[nH]2)cc1 [Compound A29, 5-methyl-3-(p-tolyl)-2H-isoquinolin-1-one] | < 0.3
19 | CC(C)(OCCO)c1ccc(-c2cc3ccc(F)cc3c(=O)[nH]2)cc1 [Compound A16, 7-fluoro-3-{4-[1-(2-hydroxy-ethoxy)-1-methyl-ethyl]-phenyl}-2H-isoquinolin-1-one] | 0.3 to 3
